These results are taken from article PMC9234961 (Journal of Medicinal Chemistry, 2022).

Converted amounts (≈) assume the structure as drawn. “And” between values parts separate entries of the source, which are not always exact repeats. Identical values can stand only once. Like-named read-outs stand apart in the source and are kept apart here. Some results are limits rather than exact numbers.

As usually defined, the Papp is the rate of passage across a membrane or cell layer, normalised by area and donor concentration. Higher therefore signals ready permeation. As a reminder, the Dmax is the greatest extent of degradation seen. Broadly, the microsomal CLint is the capacity of the preparation to metabolise the compound, expressed as a volume cleared per time. High values mean faster metabolism, low ones greater metabolic stability. As a reminder, the IC50 is the point on the concentration scale where inhibition reaches its midpoint.

A short description of data set [1]: in vitro. The note with it: PAMPA; pH 7.4, 10 µM, 16 h at 30 °C. The data set is classed as in vitro ADME. For orientation: The PAMPA barrier holds no transporters, so it reflects passive diffusion.
The nature of a further data set: NMR solubility assay. Type of data set: physicochemical. The note with it: read-out: Aq. Sol. How it is done:
4. Supplementary experimental: physicochemical assays
0.5 mM TCEP, 10% D2O) was pipetted into the same well and mixed by up-down pipetting 3 times to create […]
It was then separated by centrifugation (1000 rpm
The plate was then sealed and incubated at room temperature for 20 hours, […]
165 µL of the supernatant was transferred to a 3 mm NMR tube (Bruker, Part No. Z112272) using liquid handler SamplePro Tube SJ S (Bruker). The concentration of the solubilized compound in solubility sample is measured by quantitative 1H-NMR using a single external standard (200 µM caffeine (Sigma, C1778) in PBS (pH 7.4) with 1% DMSO-d6).
The detail of the NMR method is as following: NMR data was collected on a Bruker Avance Neo 600 spectrometer equipped with a 5 mm TCI-CryoProbe. The 1H spectrum was referenced to the internal deuterated solvent. The operating frequency for 1H was 600 MHz. All NMR data were acquired at the […]
1H-NMR spectrum was acquired using a Bruker standard 1D lc1pngppsf2 pulse sequence with 32 scans.
The sweep width was 6.2 ppm with O1P set to 8.8 ppm, and the FID contained 16k time-domain data points. Relaxation delay was set to 20 sec. Water signal was suppressed. […]

Data set [2] has as its target endogenous BCL6 in OCI-Ly1 cells (Homo sapiens, UniProt P41182). Put plainly: cell-based. The note with it: for MSD degrader assay [OCI-Ly1] Dmax: mean maximal degradation of BCL6; for MSD degrader assay [OCI-LY1] pDC50 mean: mean of replicates; for degradation of BCL6 (in words): OCI-Ly1 MSD assay.
Data set [3] can be described thus: Microsomal clearance assay (RLM). Type of data set: in vitro ADME. The note with it: female, Sprague-Dawley, pH 7.4; rat liver microsomes, 1 μM compound. As to the method:
(§1) 6. Supplementary experimental: in vitro DMPK assays
(§2) 6.1 Microsomal clearance assay
(§3) Microsomal clearance was determined in female CD1 mice, female Sprague–Dawley rats, and mixed gender human liver microsomes obtained from BioIVT (Peterborough, U.K.) following incubation of 1 μM compound at 37 °C in 0.5 mg/mL microsomal protein, 3 mmol/L MgCl2, 1 mmol/L NADPH, 2.5 mmol/L and 10 mmol/L phosphate buffer (pH 7.4) (all purchased from Sigma-Aldrich, Gillingham, U.K). Reactions were started by addition of the cofactors following 10 min preincubation of microsomes with test compound and were terminated at −1, 0, 5, 10, 15, and 30 min with three volumes of ice-cold methanol containing internal standard. Samples were centrifuged at 2800g for 30 min at 4 °C and the supernatants analyzed.
(§4) Control incubations were prepared as above with omission of cofactors. Compound measurements were […]
(§5) separation with a 3 min gradient of 0.1% formic acid in methanol on a Kinetex C18, 50 × 2.1 mm 2.6 μm UPLC column (Phenomenex, Macclesfield, UK). […]
(In general: Microsomes from liver hold many membrane-bound enzymes, among them those of drug oxidation.)

Data set [4] is described as follows: Microsomal clearance assay (HLM). The data set is classed as in vitro ADME. The note with it: both sexes, pH 7.4; human liver microsomes, 1 μM compound. As to the method:
as §1, §2, §3, §4, §5

The nature of data set [5]: Microsomal clearance assay (MLM). The data set is classed as in vitro ADME. The note with it: female, CD1, pH 7.4; mouse liver microsomes, 1 μM compound. How it is done:
as §1, §2, §3, §4, §5

The nature of data set [6]: logD7.4 assay (Chrom log D method). Type of data set: physicochemical. The settings on record: pH 7.4, read-out: Measured logD7.4. As to the method:
Calibration, validation and in-house compounds were prepared at 1mM in 10% DMSO / 90% Trizma solution (100mM Trizma in 75/25 methanol/water). 3 µL standard injections (with needle wash) of all calibration, validation and in-house samples were made onto a Phenomenex Luna C8 column (3µm, 100 x 4.6 mm, 100A, Phenomenex, Torrence, USA). Chromatographic separation at 30°C was carried out using […]
2 mL/min. The gradient was held at 0:100 water:organic for 0.8 minutes, then returned to the starting conditions of 95:5 water:organic for 0.2 minutes. The column was re-equilibrated for 5 minutes at the […]

Data set [7] concerns the target T1, human BCL6 BTB domain (Homo sapiens, UniProt P41182). The data set can be described thus: biochemical.
Method: (§6) Assays were performed in a 384-well black Proxiplate (Perkin Elmer) containing 1 nM Trx-6xHis-BCL6 (in
(§7) anti-6xHis-Terbium cryptate (CisBio Bioassays, France), in assay buffer (25 mM Hepes pH8, 100 mM NaCl,
(§8) 0.05% Tween20, 0.5 mM TCEP, 0.05% bovine serum albumin). Test compounds in DMSO or DMSO alone
(§9) were added to the wells using an ECHO550 acoustic dispenser (Labcyte Inc) to give the appropriate test
(§10) concentration in 0.7% v/v DMSO final. After 2 hours incubation at room temperature the plate was read
(§11) The % inhibition at each concentration was calculated by normalising FRET ratio to the
(§12) appropriate high (DMSO with all reagents) and low (DMSO without BCL6) controls. IC50 values were
(§13) determined using GraphPad Prism 6.0 or Dotmatics (Bishops Stortford, UK) software by fitting the
(§14) normalised data to a sigmoidal four-parameter logistic fit equation.
A short description of data set [8]: in vitro. The data set is classed as in vitro ADME. The note with it: bovine; fraction unbound in OCI-Ly1 DC50 assay medium; read-out: fu,media.
Data set [9] addresses T1, human BCL6 BTB domain. The settings on record: for BCL6 TR-FRET pIC50 mean: mean of replicates. In general terms: In TR-FRET formats the signal depends on donor and acceptor labels being close together.
Method: as §6, §7, §8, §9, §10, §11, §12, §13, §14
Where [10] appears, read: OCI-Ly1, read-out: MSD degrader assay [OCI-LY1] Dmax individual replicates, single replicate values.
Where [11] appears, read: OCI-Ly1, read-out: MSD degrader assay [OCI-Ly1] Dmax, mean maximal degradation of BCL6, OCI-Ly1 cells, 2 h.
Where [12] appears, read: read-out: MSD degrader assay [OCI-LY1] DC50 individual replicates, single replicate values.
Where [13] appears, read: read-out: MSD degrader assay [OCI-Ly1] DC50, geometric mean, OCI-Ly1 cells, 2 h incubation.
Where [14] appears, read: BCL6 TR-FRET IC50 individual replicates, single replicate values.
The mark [15] stands for this setting: BCL6 TR-FRET pIC50 mean, mean of replicates.
[16] abbreviates: kinetic solubility by NMR in HEPES buffer at pH 8, 4% DMSO.
Where [17] appears, read: read-out: BCL6 TR-FRET IC50, geometric mean, BCOR-AF633 peptide, 2 h incubation.
The mark [18] stands for this setting: read-out: BCL6 TR-FRET IC50 individual replicates, single replicate values.
The mark [19] stands for this setting: reversed-phase HPLC on Phenomenex Luna C8 column.

Turning to `C[C@H]1C[C@@H](O)CN(c2ncc(Cl)c(Nc3ccc4c(c3)n(CCC(C)(C)O)c(=O)n4C)n2)C1` (relative stereo) [compound 5, 5-((5-Chloro-2-(3-hydroxy-5-methylpiperidin-1-yl)pyrimidin-4-yl)amino)-3-(3-hydroxy-3-methylbutyl)-1-methyl-1,3-dihydro-2H-benzo[d]imidazol-2-one], the apparent permeability coefficient (Papp) in “in vitro [1]” was 23 ×10⁻⁶ cm/s. Also, the solubility kinetic at 20 h in “NMR solubility assay” (pH 8, aqueous buffer, kinetic from dmso stock) worked out at 40 µM (≈ 19 µg/mL). Besides, the greatest degradation seen (Dmax) in data set [2] (setting [10]) amounted to 91%; in data set [2] (setting [11]), 88.8%. The “MSD degrader assay [OCI-Ly1] Dmax” value in data set [2] (OCI-Ly1 cells, 2 h) came out at 89%. Besides, the “MSD degrader assay [OCI-LY1] pDC50 mean” value in [2] came to 7.4626. The DC50 was 0.0124 µM in [2] (read-out: Calculated free DC50 [OCI-Ly1], DC50 corrected with fu,media); 0.066 µM and 0.018 µM in data set [2] (setting [12]); 0.035 µM and 0.0345 µM in data set [2] (setting [13]). In addition, in [2] (single replicate values), the “MSD degrader assay [OCI-LY1] Dmax individual replicates” value amounted to 86.653%. Moreover, the intrinsic clearance (microsomal CLint) at 1 μM is 14 µL/min/mg in data set [3], 28 µL/min/mg in data set [4] and 122 µL/min/mg in data set [5]. Further, in data set [6], the chromatographic logD was 2.3. The IC50 is 0.095 µM against human BCL6 BTB domain [7] (BCL6 TR-FRET IC50, geometric mean, BCOR-AF633 peptide, 2 h incubation); 0.101 µM and 0.0996 µM and 0.0943 µM and 0.0862 µM on human BCL6 BTB domain [7] (setting [14]); 0.0951 µM against human BCL6 BTB domain [7] (setting [15]). Further, in the data set “in vitro [8]”, the fraction unbound came to 0.37.

Consider `Cn1c(=O)c2c(c3cc(Nc4nc(N5CCC[C@@H](O)C5)ncc4Cl)ccc31)N[C@@H](C1CC1)C(F)(F)CO2` [14a, (S)-10-((5-chloro-2-((R)-3-hydroxypiperidin-1-yl)pyrimidin-4-yl)amino)-2-cyclopropyl-3,3-difluoro-7-methyl-1,2,3,4-tetrahydro-[1,4]oxazepino[2,3-c]quinolin-6(7H)-one], for which the solubility kinetic at 20 h in the data set “NMR solubility assay” (setting [16]) turned out to be 25 µM (≈ 13.3 µg/mL). Further, the Dmax in [2] (setting [10]) and in data set [2] (setting [11]) was 34.9% each time. Also, the “MSD degrader assay [OCI-Ly1] Dmax” value in data set [2] (OCI-Ly1 cells, 2 h) came out at 35%. Further, the DC50 in data set [2] (setting [12]) and in data set [2] (setting [13]) was > 2 µM throughout. In data set [5], the microsomal CLint at 0.5 h, 1 µM stood at 88 µL/min/mg. For the same compound, the 50% inhibitory concentration (IC50) at human BCL6 BTB domain [9] (setting [17]) was 0.003 µM; at human BCL6 BTB domain [9] (setting [18]), 0.0031 µM; against human BCL6 BTB domain [7] (setting [14]) it was 0.0017 µM and 0.0024 µM; against human BCL6 BTB domain [7] (setting [15]), 0.00246 µM. The chromatographic logD in [6] was 2.7.

In the case of `C[C@H]1CCCN(c2ncc(Cl)c(Nc3ccc4c(c3)c3c(c(=O)n4C)OCC(F)(F)[C@H](C4CC4)N3)n2)C1` [15a, (S)-10-((5-chloro-2-((S)-3-methylpiperidin-1-yl)pyrimidin-4-yl)amino)-2-cyclopropyl-3,3-difluoro-7-methyl-1,2,3,4-tetrahydro-[1,4]oxazepino[2,3-c]quinolin-6(7H)-one], in the data set “NMR solubility assay” (setting [16]), the solubility kinetic at 20 h was 0 µM. Besides, the Dmax in data set [2] (setting [10]) amounted to 88.4%; in [2] (setting [11]), 85.5%. For the same compound, the “degradation of BCL6 (in words)” value in [2] is “degraders of BCL6”. Besides, the “MSD degrader assay [OCI-Ly1] Dmax” value in [2] (OCI-Ly1 cells, 2 h) stood at 86%. Moreover, in [2], the “MSD degrader assay [OCI-LY1] pDC50 mean” value stood at 8.1987. For the same compound, the DC50 in data set [2] (setting [12]) was 0.016 µM and 0.0017 µM and 0.0093 µM; in [2] (setting [13]), 0.0063 µM. Besides, the “MSD degrader assay [OCI-LY1] Dmax individual replicates” value in data set [2] (single replicate values) is 83.3% and 85.0%. In data set [5], this compound yielded a microsomal CLint at 0.5 h, 1 µM of 568 µL/min/mg. Further, the “BCL6 TR-FRET pIC50 mean” value on human BCL6 BTB domain [9] is on record as 7.4377. In addition, the 50% inhibitory concentration (IC50) on human BCL6 BTB domain [9] (setting [17]) is 0.0365 µM; on human BCL6 BTB domain [7] (setting [14]) it was 0.048 µM and 0.0295 µM and 0.0344 µM. The chromatographic logD in [6] (setting [19]) was 4.9.

Take `C[C@@H]1CCCN(c2ncc(Cl)c(Nc3ccc4c(c3)c3c(c(=O)n4C)OCC(F)(F)[C@H](C4CC4)N3)n2)C1` [15b, (S)-10-((5-Chloro-2-((R)-3-methylpiperidin-1-yl)pyrimidin-4-yl)amino)-2-cyclopropyl-3,3-difluoro-7-methyl-1,2,3,4-tetrahydro-[1,4]oxazepino[2,3-c]quinolin-6(7H)-one]: the solubility kinetic at 20 h in “NMR solubility assay” (setting [16]) was 0 µM. Moreover, the Dmax in data set [2] (setting [10]) was determined as 73.4%; in data set [2] (setting [11]) it was 72.1%. The “degradation of BCL6 (in words)” value in data set [2] is “degraders of BCL6”. Besides, in [2] (OCI-Ly1 cells, 2 h), the “MSD degrader assay [OCI-Ly1] Dmax” value stood at 72%. Moreover, the “MSD degrader assay [OCI-LY1] pDC50 mean” value in data set [2] is 7.4874. Also, the DC50 in data set [2] (setting [12]) is 0.0194 µM and 0.0396 µM and 0.0448 µM; in data set [2] (setting [13]), 0.0326 µM. In [2] (single replicate values), the “MSD degrader assay [OCI-LY1] Dmax individual replicates” value is 70.6% and 72.2%. In [5], this compound returned an intrinsic metabolic clearance (microsomal CLint) at 0.5 h, 1 µM of 204 µL/min/mg. For the same compound, the “BCL6 TR-FRET pIC50 mean” value on human BCL6 BTB domain [9] amounted to 7.6089. The IC50 at human BCL6 BTB domain [9] (setting [17]) was 0.0246 µM; on human BCL6 BTB domain [9] (setting [18]), 0.0238 µM; against human BCL6 BTB domain [7] (setting [14]), 0.0276 µM and 0.0226 µM. Further, the chromatographic logD in [6] (setting [19]) came to 5.
